In the supplement of paper PMC5579334:
± gives the standard deviation of the averaged measurements.

Columns and labels:
HS-PSS [1] = test: % inhibition of CellTiter-Glo viability at highest tested concentration (72 h), relative to DMSO and benzethonium chloride controls; higher = more inhibition
Summary of the method: (§1)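 MPNST cell lines and primary human Schwann cells were seeded at 750–1000 cells per well into 384-well plates preprinted with each compound at five concentrations in 10-fold steps, then incubated 72 h at 37 °C, 5% CO2. CellTiter-Glo ATP luminescence gave viability, scaled between vehicle and positive-control wells, with duplicates averaged where present. Curves were fitted with a four-parameter logistic model. Percent inhibition refers to the top concentration, while drug sensitivity score and relative IC50, censored at the top concentration, come from these fits.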

STS26T [2] = test: as above
Summary of the method: as §1

S1507-2 [3] = test: as above
Summary of the method: as §1

[4] = tested on: HSC1 (primary human Schwann cells); test: as above
Summary of the method: as §1

HS-Sch-2 [5] = test: as above
Summary of the method: as §1

[6] = tested on: HSC2 (primary human Schwann cells); test: as above
Summary of the method: as §1

S462 [7] = test: as above
Summary of the method: as §1

YST-1 [8] = test: as above
Summary of the method: as §1

ST8814 [9] = test: as above
Summary of the method: as §1

HS-PSS [10] = test: drug sensitivity score (DSS, CellTox-Green cytotoxicity, 72 h) (DSS (dimensionless)); higher = more cytotoxic; extreme values may be limits of the assay
Summary of the method: (§2)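 For 72 h at 37 °C, MPNST cell lines and primary human Schwann cells were exposed in 384-well plates to five 10-fold compound dilutions. CellTox-Green, added before seeding at a final 1:1000 dilution, gave fluorescence from DNA released by disrupted cells. Signals were scaled to vehicle and positive-control wells, cultures failing plate quality control were left out, and four-parameter logistic fits were applied. Relative IC50 and drug sensitivity score were derived from the fits, with IC50 censored at the top concentration.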

STS26T [11] = test: as above
Summary of the method: as §2

S1507-2 [12] = test: as above
Summary of the method: as §2

[13] = tested on: HSC1 (primary human Schwann cells); test: as above
Summary of the method: as §2

[14] = tested on: HSC2 (primary human Schwann cells); test: as above
Summary of the method: as §2

ST8814 [15] = test: as above
Summary of the method: as §2

HS-PSS [16] = test: drug sensitivity score (DSS, CellTiter-Glo viability, 72 h) (DSS (dimensionless)); higher = more sensitive; extreme values may be limits of the assay
Summary of the method: as §1

STS26T [17] = test: as above
Summary of the method: as §1

S1507-2 [18] = test: as above
Summary of the method: as §1

[19] = tested on: HSC1 (primary human Schwann cells); test: as above
Summary of the method: as §1

HS-Sch-2 [20] = test: as above
Summary of the method: as §1

[21] = tested on: HSC2 (primary human Schwann cells); test: as above
Summary of the method: as §1

S462 [22] = test: as above
Summary of the method: as §1

YST-1 [23] = test: as above
Summary of the method: as §1

ST8814 [24] = test: as above
Summary of the method: as §1

| SMILES | % inhibition (HS-PSS [1]) | % inhibition (STS26T [2]) | % inhibition (S1507-2 [3]) | % inhibition [4] | % inhibition (HS-Sch-2 [5]) | % inhibition [6] | % inhibition (S462 [7]) | % inhibition (YST-1 [8]) | % inhibition (ST8814 [9]) | drug sensitivity score (HS-PSS [10]) | drug sensitivity score (STS26T [11]) | drug sensitivity score (S1507-2 [12]) | drug sensitivity score [13] | drug sensitivity score [14] | drug sensitivity score (ST8814 [15]) | drug sensitivity score (HS-PSS [16]) | drug sensitivity score (STS26T [17]) | drug sensitivity score (S1507-2 [18]) | drug sensitivity score [19] | drug sensitivity score (HS-Sch-2 [20]) | drug sensitivity score [21] | drug sensitivity score (S462 [22]) | drug sensitivity score (YST-1 [23]) | drug sensitivity score (ST8814 [24]) |
| --- | --- | --- | --- | --- | --- | --- | --- | --- | --- | --- | --- | --- | --- | --- | --- | --- | --- | --- | --- | --- | --- | --- | --- | --- |
| CC(C)C(=O)Nc1ccc([N+](=O)[O-])c(C(F)(F)F)c1 [Flutamide] (max concentration tested 10000 nM) | 10.5% | 9.3% | 4.01 ± 0.74% | 9.44% | -3.98% | 5.2% | 5.56 ± 0.56% | -0.22% | 4.3% | 0 | 0 | 0 | 0 | 0 | 0 | 0 | 0 | 0 | 0 | 0 | 0 | 0 | 0 | 0 |
| Cc1ccc(C(=O)N(CCCN)[C@@H](c2oc3cc(Cl)ccc3c(=O)c2Cc2ccccc2)C(C)C)cc1 (max concentration tested 100 nM) | 26.9% | 2.24% | 5.6 ± 6.5% | 7.2% | 87.1% | -19.5% | -2.08 ± 8.3% | 76% | 5.16% | 0 | 0 | 0 | 0 | 0 | 0 | 6.42 | 0 | 0.0057 ± 0.0081 | 0 | 19 | 0 | 0 | 18.9 | 0 |
| CCn1c(-c2nonc2N)nc2cnc(Oc3cccc(NC(=O)c4ccc(OCCN5CCOCC5)cc4)c3)cc21 (max concentration tested 10000 nM) | 47.1% | 50.7% | 36.1 ± 2.2% | 70.6% | 58% | 71.3% | 43.6 ± 3.2% | 49.8% | 34.9% | 0 | 5.6 | 2.06 ± 2.4 | 1.62 | 0.268 | 0 | 4.2 | 5.65 | 3.11 ± 0.81 | 16.9 | 6.03 | 18.1 | 3.9 ± 0.086 | 6.84 | 2.57 |
| CC[C@@]1(O)C(=O)OCc2c1cc1n(c2=O)Cc2cc3c(CN(C)C)c(O)ccc3nc2-1 [Topotecan] (max concentration tested 10000 nM) | 87.1% | 92.2% | 92.99 ± 0.57% | 91.1% | 101% | 93.5% | 96 ± 1.4% | 99.7% | 93.6% | 11.1 | 15.6 | 16.1 ± 2.5 | 27.9 | 18.4 | 32.1 | 14.6 | 18.3 | 18.9 ± 2.7 | 19.6 | 21.7 | 22 | 27.08 ± 0.12 | 26.3 | 27.2 |
| CN1CCN(c2ccc3nc(-c4c(N)c5c(F)cccc5[nH]c4=O)[nH]c3c2)CC1 [Dovitinib] (max concentration tested 10000 nM) | -2.95% | 10.4% | 21.7 ± 2.2% | 19.1% | 22.3% | 16.2% | 18.1 ± 0.51% | 17.6% | -2.1% | 0 | 0 | 0 | 0 | 0 | 0 | 0 | 0.0001 | 3.54 ± 3.6 | 1.65 | 0.84 | 0.382 | 0.655 ± 0.32 | 0.32 | 0 |
| C[C@]12CC[C@@H]3c4ccc(O)cc4C[C@@H](CCCCCCCCC[S+]([O-])CCCC(F)(F)C(F)(F)F)[C@H]3[C@@H]1CC[C@@H]2O (stereo partly drawn) [Fulvestrant] (max concentration tested 1000 nM) | 10.3% | 4.69% | -11.9 ± 2.2% | 11.4% | 8.02% | 18.2% | 6.51 ± 4.8% | 1.11% | -2.59% | 0 | 0 | 1.33 ± 1.9 | 0 | 0 | 0 | 0 | 0 | 0 | 0.178 | 0 | 0.538 | 0 | 0 | 0 |
| CN1CCc2c(c3ccccc3n2Cc2ccc(C(=O)NO)cc2)C1 [Tubastatin A] (max concentration tested 10000 nM) | 60.9% | 52.5% | 52.1 ± 7.6% | 36.4% | 74.3% | 23.3% | 80.8 ± 8.9% | 52.4% | 40.8% | 0 | 2.56 | 0.928 ± 1.3 | 0 | 0 | 0 | 3.48 | 3.1 | 3.45 ± 0.18 | 1.74 | 3.88 | 1.75 | 4.36 ± 0.37 | 4.65 | 1.84 |
